# Measurements as given in patent US20080027035A1, “Dpp-Iv Inhibitors” (GRAFFINITY PHARMACEUTICALS AG, priority 2003, published 2008).
# Target: T1, DPP-IV (Homo sapiens, UniProt P27487)
# T1 construct: Soluble human DPP-IV lacking the transmembrane anchor (Gly31-Pro766); Pre-Pro-alpha-mating factor leader (secretion signal) (N, cleaved yes); made in house
# Test: Inhibition of DPP-IV peptidase activity, continuous fluorimetric assay (Gly-Pro-AMC cleavage)
# Type: biochemical
# Settings: 16 μM Gly-Pro-AMC, pH 7.4, 25° C., 1% DMSO
# Method: Inhibition of DPP-IV peptidase activity was monitored with a continuous fluorimetric assay. This assay is based on the cleavage of the substrate Gly-Pro-AMC (Bachem) by DPP-IV, releasing free AMC. The assay is carried out in 96-well microtiterplates. In a total volume of 100 μL, compounds are preincubated with […] employing a buffer containing 10 mM Hepes, 150 mM NaCl, 0.005% Tween 20 (pH 7.4). […] The final concentration of DMSO is 1%. The inhibitory potential of the compounds were determined.
# Soluble human DPP-IV lacking the transmembrane anchor (Gly31-Pro766) was expressed in a recombinant YEAST-strain as Pre-Pro-alpha-mating fusion.
# T1 sequence (P27487 31-766): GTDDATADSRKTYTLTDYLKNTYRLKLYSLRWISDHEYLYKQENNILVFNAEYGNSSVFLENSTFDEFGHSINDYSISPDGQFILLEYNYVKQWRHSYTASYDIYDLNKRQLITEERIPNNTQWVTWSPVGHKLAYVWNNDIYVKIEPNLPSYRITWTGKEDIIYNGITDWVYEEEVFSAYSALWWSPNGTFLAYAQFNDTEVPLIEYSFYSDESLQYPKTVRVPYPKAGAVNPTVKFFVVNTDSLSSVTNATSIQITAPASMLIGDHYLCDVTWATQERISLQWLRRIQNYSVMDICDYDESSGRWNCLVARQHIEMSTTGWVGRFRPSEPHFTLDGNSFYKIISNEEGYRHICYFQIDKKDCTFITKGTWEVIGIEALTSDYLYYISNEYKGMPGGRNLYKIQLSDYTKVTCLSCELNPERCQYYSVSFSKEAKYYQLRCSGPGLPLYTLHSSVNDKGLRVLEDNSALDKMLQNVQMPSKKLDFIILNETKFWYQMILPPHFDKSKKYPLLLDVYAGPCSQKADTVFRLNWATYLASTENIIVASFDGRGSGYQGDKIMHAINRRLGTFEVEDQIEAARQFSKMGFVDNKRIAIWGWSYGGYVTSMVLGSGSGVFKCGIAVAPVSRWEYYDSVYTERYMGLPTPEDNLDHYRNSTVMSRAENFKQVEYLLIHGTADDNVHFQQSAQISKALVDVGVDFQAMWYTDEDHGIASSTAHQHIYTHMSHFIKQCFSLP
row,Compound,IC50 [nM]
1,"N[C@@H](CC(=O)N1CCCC(CNC(=O)c2ccccc2)C1)Cc1ccccc1F (mixture of isomers) [Example 94, N-{1-[(3R)-Amino-4-(2-fluoro-phenyl)-butyryl]-piperidin-3-ylmethyl}-benzamide]",101 to 1000
2,"N[C@@H](CC(=O)N1CCCC(CO)C1)Cc1ccccc1F (mixture of isomers) [Example 105, 3-Amino-4-(2-fluoro-phenyl)-1-(3-hydroxymethyl-piperidin-1-yl)-butan-1-one]",1000 to 2000
3,"N[C@@H](CC(=O)N1CCC[C@H]1COCc1ccccc1)Cc1ccccc1F [Example 32, (3R)-Amino-1-[(2S)-benzyloxymethyl-pyrrolidin-1-yl]-4-(2-fluoro-phenyl)-butan-1-one]",101 to 1000
4,COC[C@@H]1CCCN1C(=O)C[C@H](N)Cc1ccccc1F [Example 33],101 to 1000
5,N#Cc1ccc(OC[C@@H]2CCCN2C(=O)C[C@H](N)Cc2ccccc2F)cc1 [Example 34],< 100
6,N[C@@H](CC(=O)N1CCC[C@H]1COc1ccccc1)Cc1ccccc1F [Example 35],< 100
7,N#Cc1cccc(OC[C@@H]2CCCN2C(=O)C[C@H](N)Cc2ccccc2F)c1 [Example 36],< 100
8,N#Cc1ccccc1OC[C@@H]1CCCN1C(=O)C[C@H](N)Cc1ccccc1F [Example 37],< 100
9,N[C@@H](CC(=O)N1CCC[C@H]1COc1ccc(F)cc1)Cc1ccccc1F [Example 38],< 100
10,N[C@@H](CC(=O)N1CCC[C@H]1COc1ccccn1)Cc1ccccc1F [Example 39],< 100
11,N[C@@H](CC(=O)N1CCC[C@H]1COc1cccc(F)c1)Cc1ccccc1F [Example 40],< 100
12,N[C@@H](CC(=O)N1CCC[C@H]1COc1cccc(F)c1)Cc1cccc(Cl)c1 [Example 41],< 100
13,N[C@@H](CC(=O)N1CCC[C@H]1CNC(=O)c1ccccc1)Cc1ccc(F)cc1 [Example 44],101 to 1000
14,N[C@@H](CC(=O)N1CCC[C@H]1CNC(=O)c1ccccc1)Cc1cccc(Cl)c1 [Example 45],< 100
15,N[C@@H](CC(=O)N1CCC[C@H]1CNC(=O)c1ccccc1)Cc1cccc(F)c1 [Example 46],< 100
16,N#Cc1cccc(C[C@@H](N)CC(=O)N2CCC[C@H]2CNC(=O)c2ccccc2)c1 [Example 47],101 to 1000
17,N[C@@H](CC(=O)N1CCC[C@H]1CNC(=O)c1ccccc1)Cc1ccccc1Cl [Example 48],< 100
18,N[C@@H](CC(=O)N1CCC[C@H]1CNC(=O)c1ccccc1)Cc1ccccc1 [Example 49],101 to 1000
19,N[C@@H](CC(=O)N1CCC[C@H]1CNC(=O)c1ccccc1)Cc1ccc(F)c(F)c1 [Example 50],< 100
20,"COc1cccc(C(=O)NC[C@@H]2CCCN2C(=O)C[C@H](N)Cc2ccccc2F)c1 [Example 54, N-{1-[3-Amino-4-(2-fluoro-phenyl)-butyryl]-pyrrolidin-2-ylmethyl}-3-methoxy-benzamide]",< 100
21,N[C@@H](CC(=O)N1CCC[C@H]1CNC(=O)c1ccccc1F)Cc1ccccc1F [Example 55],< 100
22,N[C@@H](CC(=O)N1CCC[C@H]1CNC(=O)c1cccc(F)c1)Cc1ccccc1F [Example 56],< 100
23,N[C@@H](CC(=O)N1CCC[C@H]1CNC(=O)c1ccc(F)cc1)Cc1ccccc1F [Example 57],< 100
24,N[C@@H](CC(=O)N1CCC[C@H]1CNC(=O)c1cccnc1)Cc1ccccc1F [Example 59],< 100
25,N[C@@H](CC(=O)N1CCC[C@H]1CNC(=O)c1ccncc1)Cc1ccccc1F [Example 60],< 100
26,CS(=O)(=O)c1ccc(C(=O)NC[C@@H]2CCCN2C(=O)C[C@H](N)Cc2ccccc2F)cc1 [Example 61],< 100

row,Compound,IC50 [nM]
1,CS(=O)(=O)c1ccccc1C(=O)NC[C@@H]1CCCN1C(=O)C[C@H](N)Cc1ccccc1F [Example 62],< 100
2,"N[C@@H](CC(=O)N1CCC[C@H]1CNc1ccccc1)Cc1ccccc1F [Example 66, (3R)-Amino-4-(2-fluoro-phenyl)-1-[(2S)-phenylaminomethyl-pyrrolidin-1-yl]-butan-1-one]",< 100
3,N[C@@H](CC(=O)N1CCC[C@H]1CN1CCCC1)Cc1cccc(Cl)c1 [Example 67],101 to 1000
4,"N#Cc1ccc(NC[C@@H]2CCCN2C(=O)C[C@H](N)Cc2ccccc2F)nc1 [Example 68, 6-({1-[3-Amino-4-(2-fluoro-phenyl)-butyryl]-pyrrolidin-2-ylmethyl}-amino)-nicotinonitrile]",< 100
5,N[C@@H](CC(=O)N1CCC[C@H]1CNc1cnccn1)Cc1ccccc1F [Example 69],101 to 1000
6,"COc1ccc(S(=O)(=O)NC[C@@H]2CCCN2C(=O)C[C@H](N)Cc2ccccc2F)cc1OC [Example 78, N-{1-[3-Amino-4-(2-fluoro-phenyl)-butyryl]-pyrrolidin-2-ylmethyl}-3,4-dimethoxy-benzenesulfonamide]",< 100
7,N[C@@H](CC(=O)N1CCC[C@H]1CNS(=O)(=O)c1cccc(F)c1)Cc1ccccc1F [Example 79],< 100
8,COc1ccc(S(=O)(=O)NC[C@@H]2CCCN2C(=O)C[C@H](N)Cc2ccccc2F)cc1 [Example 80],< 100
9,N[C@@H](CC(=O)N1CCC[C@H]1CNS(=O)(=O)c1ccc(Cl)cc1)Cc1ccccc1F [Example 81],< 100
10,N[C@@H](CC(=O)N1CCC[C@H]1CNS(=O)(=O)c1cc(Cl)ccc1Cl)Cc1ccccc1F [Example 82],< 100
11,N[C@@H](CC(=O)N1CCC[C@H]1CNS(=O)(=O)c1ccccc1F)Cc1ccccc1F [Example 83],< 100
12,N[C@@H](CC(=O)N1CCC[C@H]1CNS(=O)(=O)c1ccc(F)cc1)Cc1ccccc1F [Example 84],< 100
13,CS(=O)(=O)NC[C@@H]1CCCN1C(=O)C[C@H](N)Cc1ccccc1F [Example 85],< 100
14,"N[C@@H](CC(=O)N1CCC[C@H]1CNC(=O)Nc1ccccc1)Cc1ccccc1F [Example 86, 1-{1-[(3R)-Amino-4-(2-fluoro-phenyl)-butyryl]-pyrrolidin-(2S)-ylmethyl}-3-phenyl-urea]",< 100
15,"N[C@@H](CC(=O)N1CCCC[C@H]1CNC(=O)c1ccccc1)Cc1ccccc1F [Example 87, N-{1-[(3R)-Amino-4-(2-fluoro-phenyl)-butyryl]-piperidin-(2S)-ylmethyl}-benzamide]",101 to 1000
16,"N[C@@H](CC(=O)N1CCCC[C@H]1CNS(=O)(=O)c1ccccc1)Cc1ccccc1F [Example 88, N-{1-[(3R)-Amino-4-(2-fluoro-phenyl)-butyryl]-piperidin-(2S)-ylmethyl}-benzenesulfonamide]",101 to 1000
17,"N[C@@H](CC(=O)N1CCCC(CNS(=O)(=O)c2ccccc2)C1)Cc1ccccc1F (stereo partly shown) [Example 89, N-{1-[3-Amino-4-(2-fluoro-phenyl)-butyryl]-piperidin-3-ylmethyl}-benzenesulfonamide]",101 to 1000
18,"N[C@@H](CC(=O)N1CC(CNC(=O)c2ccccc2)C1)Cc1ccccc1F [Example 90, N-{1-[(3R)-Amino-4-(2-fluoro-phenyl)-butyryl]-azetidin-3-ylmethyl}-benzamide]",101 to 1000
19,"N[C@@H](CC(=O)N1CC(CNS(=O)(=O)c2ccccc2)C1)Cc1ccccc1F [Example 91, N-{1-[3-Amino-4-(2-fluoro-phenyl)-butyryl]-azetidin-3-ylmethyl}-benzenesulfonamide]",101 to 1000
20,"N[C@@H](CC(=O)N1CC(COc2ccccc2)C1)Cc1ccccc1F [Example 92, 3-Amino-4-(2-fluoro-phenyl)-1-(3-phenoxymethyl-azetidin-1-yl)-butan-1-one]",1000 to 2000
21,N[C@@H](CC(=O)N1CC(COc2ccccn2)C1)Cc1ccccc1F [Example 93],1000 to 2000
22,"N[C@@H](CC(=O)N1CCC[C@H]1CNc1nc(-c2ccccc2)no1)Cc1ccccc1F [Example 100, (3R)-Amino-4-(2-fluorophenyl)-1-{(2S)-[(3-phenyl-[1,2,4]oxadiazol-5-ylamino)-methyl]-pyrrolidin-1-yl}butan-1-one]",101 to 1000
23,"N[C@@H](CC(=O)N1CCC[C@H]1CNc1nc(-c2ccccn2)no1)Cc1ccccc1F [Example 101, (3R)-Amino-4-(2-fluorophenyl)-1-{(2 S)-[(3-pyridin-2-yl-[1,2,4]oxadiazol-5-ylamino)-methyl]-pyrrolidin-1-yl}-butan-1-one]",< 100
24,N[C@@H](CC(=O)N1CCC[C@H]1CNc1nc(-c2cccc(Cl)c2)no1)Cc1ccccc1F [Example 102],< 100
25,"N[C@@H](CC(=O)N1CCC[C@H]1CNc1nc(-c2cccc(F)c2)no1)Cc1ccccc1F [Example 103, (3R)-Amino-4-(2-fluorophenyl)-1-((2S)-{[3-(3-fluorophenyl)-[1,2,4]oxadiazol-5-ylamino]-methyl}-pyrrolidin-1-yl)-butan-1-one]",1000 to 2000
26,"CS(=O)(=O)c1ccc(-c2noc(NC[C@@H]3CCCN3C(=O)C[C@H](N)Cc3ccccc3F)n2)cc1 [Example 104, (3R)-Amino-4-(2-fluorophenyl)-1-((2S)-{[3-(4-methanesulphonylphenyl)-[1,2,4]oxadiazol-5-ylamino]-methyl}-pyrrolidin-1-yl)-butan-1-one]",< 100
